Target: T1, human LPAR1 (Homo sapiens, UniProt Q92633)
T1 construct: host or cells: TangoEDG2-bla U2OS cells
Experiment: Arrestin assay (Arrestin Reporter EDG2-bla U2OS), inhibition of LPA-stimulated signal
Format: cell-based
Conditions: TangoEDG2-bla U2OS cells expressing human LPAR1; 0.25 μM LPA; read-out: Arrestin Reporter EDG2-bla U2OS Human Merged IC50
Experimental: The inhibitory activity of compounds 15, 62, 77, 84 and 169 against LPAR1 was measured using an Arrestin assay in U2OS cells expressing human LPAR1.
FreeStyle media was warmed in a 37° C. water bath. Cryo-preserved vial(s) of TangoEDG2-bla U2OS cells were rapidly thawed in a 37° C. water bath. The thawed cells were added to FreeStyle media and cells were pelleted at 300×g for 5 minutes. The supernatant was aspirated, and cells were resuspended in FreeStyle media. Cell density was adjusted to 0.25×10^6 cells/mL. Cells (1×10^4 in 40 μL) were added to each well of Greiner 384 well black cell plate(s). Cell plate(s) were placed in a humidified 37° C./5% CO2 incubator for 18-20 hours. Dilutions of test compound were prepared at 6× final concentration; 12-point, 3-fold dilutions using HH Buffer (1×HBSS plus 20 mM HEPES). The 6× test compound was then added to the cell plate(s) at 10 μL/well. The final concentration ranged from 10 μM to 0.00006 μM. Cell plate(s) were incubated in a humidified 37° C./5% CO2 incubator for 1 hour. During the incubation, 6×LPA was prepared at 1.5 μM in 0.1% BSA HH Buffer. After the 1-hour incubation of test compound with cells, the LPA was added to the cell plate(s) at 10 μL/well (final LPA concentration of 0.25 μM). Cell plate(s) were returned to a humidified 37° C./5% CO2 incubator for 3 hours. The Development solution was made up per the LiveBLAzerFRET B/G kit protocol. The Development solution was added to the cell plate(s) at 10 μL/well. Cell plates were incubated in the dark at room temperature for 2 hours. Plate(s) were read on an Envision Plate Reader (Perkin Elmer) to read fluorescence; excitation at 409 nm with emission at 460 nm and 530 nm. Raw Data for analysis is the ratio of emission at 460 nm divided by emission 530 nm. The formula used to determine % Inhibition is as follows (1−(Raw Data−Low Average)/(High Average−Low Average))*100. Percent Inhibition was plotted to determine IC50 value with GraphPad Prism 9.5.0 software using Variable slope 4-parameter curve fit analysis.
Additional compounds of the present disclosure were synthesized in a manner similar to the compounds described above and understood by a person of ordinary skill in the art. The inhibitory activity of the compounds of the present disclosure against LPAR1 was measured using the above-referenced Arrestin Assay protocol.

T1 sequence (Q92633 whole entry): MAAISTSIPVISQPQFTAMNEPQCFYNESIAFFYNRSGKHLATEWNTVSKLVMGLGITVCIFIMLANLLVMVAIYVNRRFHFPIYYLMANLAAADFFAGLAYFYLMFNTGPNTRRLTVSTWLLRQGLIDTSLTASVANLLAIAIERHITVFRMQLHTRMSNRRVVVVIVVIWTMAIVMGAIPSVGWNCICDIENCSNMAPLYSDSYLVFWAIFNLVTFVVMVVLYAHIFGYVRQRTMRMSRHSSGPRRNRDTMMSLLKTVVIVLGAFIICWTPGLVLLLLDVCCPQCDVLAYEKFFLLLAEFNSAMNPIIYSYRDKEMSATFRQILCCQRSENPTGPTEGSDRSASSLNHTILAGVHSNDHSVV

Row | SMILES | IC50 [nM]
1 | CC(C)c1ccnn1C1(C(=O)Nc2ccc(Cl)cc2OC(F)F)CCN(CC2(C(=O)O)CCN(C(=O)CC3CC3)CC2)CC1 [Compound 48] | 44
2 | COC1(C(=O)O)CC(N2CCC(C(=O)Nc3ccc(Cl)cc3OC(F)F)(n3ncc(F)c3C(C)C)CC2)C1 (stereo not shown) [Compound 199, 3-[4-[[4-chloro-2-(difluoromethoxy)phenyl]carbamoyl]-4-(4-fluoro-5-isopropyl-pyrazol-1-yl)-1-piperidyl]-1-methoxy-cyclobutanecarboxylic acid] | 40.4
3 | CC(C)c1ccnn1C1(C(=O)Nc2ccc(Cl)cc2OC(F)F)CCN(CC2(C(=O)O)CCN(C(=O)C[C@@H]3CCOC3)CC2)CC1 [Compound 93, 4-[[4-[[4-chloro-2-(difluoromethoxy)phenyl]carbamoyl]-4-(5-isopropylpyrazol-1-yl)-1-piperidyl]methyl]-1-[2-[(3S)-tetrahydrofuran-3-yl]acetyl]piperidine-4-carboxylic acid] | 539
4 | CC(C)c1c(Cl)cnn1C1(C(=O)Nc2ccc(Cl)cc2OC(F)F)CCN(C[C@H](C(=O)O)C2CCOCC2)CC1 (single isomer, unassigned) [Compound 198] | 31.2
5 | CC(C)c1ccnn1C1(C(=O)Nc2ccc(Cl)cc2OC(F)F)CCN(CC2(C(=O)O)CC23CCOCC3)CC1 (stereo not shown) [Compound 73, 2-[[4-[[4-chloro-2-(difluoromethoxy)phenyl]carbamoyl]-4-(5-isopropylpyrazol-1-yl)-1-piperidyl]methyl]-6-oxaspiro[2.5]octane-2-carboxylic acid] | 37.2
6 | CC(C)c1ccnn1C1(C(=O)Nc2ccc(Cl)cc2OC(F)F)CCN(C2(CC(=O)O)CCOCC2)CC1 [Compound 128, 2-[4-[4-[[4-chloro-2-(difluoromethoxy)phenyl]carbamoyl]-4-(5-isopropylpyrazol-1-yl)-1-piperidyl]tetrahydropyran-4-yl]acetic acid] | 56
7 | CC(C)c1ccnn1C1(C(=O)Nc2ccc(Cl)cc2OC(F)F)CCN(CC2(C(=O)O)CCS(=O)(=O)CC2)CC1 [Compound 65, 4-[[4-[[4-chloro-2-(difluoromethoxy)phenyl]carbamoyl]-4-(5-isopropylpyrazol-1-yl)-1-piperidyl]methyl]-1,1-dioxo-thiane-4-carboxylic acid] | 9.87
8 | CC(C)c1c(F)cnn1C1(C(=O)Nc2ccc(Cl)cc2OC(F)F)CCN(C[C@H](C(=O)O)C2CCOCC2)CC1 [Compound 141, (28)-3-[4-[[4-chloro-2-(difluoromethoxy)phenyl]carbamoyl]-4-(4-fluoro-5-isopropyl-pyrazol-1-yl)-1-piperidyl]-2-tetrahydropyran-4-yl-propanoic acid] | 25.7
9 | CC(C)c1ccnn1C1(C(=O)Nc2ccc(Cl)cc2OC(F)F)CCN([C@H]2CC[C@H](C(=O)O)OC2)CC1 (single isomer, unassigned) [Compound 192] | 65.6
10 | COC12CC(C(=O)N3CCC(CN4CCC(C(=O)Nc5ccc(Cl)cc5OC(F)F)(n5nccc5C(C)C)CC4)(C(=O)O)CC3)(C1)C2 [Compound 68, 4-[[4-[[4-chloro-2-(difluoromethoxy)phenyl]carbamoyl]-4-(5-isopropylpyrazol-1-yl)-1-piperidyl]methyl]-1-(3-methoxybicyclo[1.1.1]pentane-1-carbonyl)piperidine-4-carboxylic acid] | 65.6
11 | CC(C)c1ccnn1C1(C(=O)Nc2ccc(Cl)cc2OC(F)F)CCN([C@H]2C[C@@](NS(C)(=O)=O)(C(=O)O)C2)CC1 [Compound 132, (1r,3r)-3-[4-[[4-chloro-2-(difluoromethoxy)phenyl]carbamoyl]-4-(5-isopropylpyrazol-1-yl)-1-piperidyl]-1-(methanesulfonamido) cyclobutanecarboxylic acid] | 178

Continued, values first:

Row | IC50 [nM] | SMILES
12 | 37.9 | COCCC(CN1CCC(C(=O)Nc2ccc(Cl)cc2OC(F)F)(n2nccc2C(C)C)CC1)C(=O)O (stereo not shown) [Compound 142, 2-[[4-[[4-chloro-2-(difluoromethoxy)phenyl]carbamoyl]-4-(5-isopropylpyrazol-1-yl)-1-piperidyl]methyl]-4-methoxy-butanoic acid]
13 | 57.2 | CC(C)c1ccnn1C1(C(=O)Nc2ccc(Cl)cc2OC(F)F)CCN([C@@H]2CO[C@H](C(=O)O)C2)CC1 (single isomer, unassigned) [Compound 137]
14 | 8.37 | CC(C)c1ccnn1C1(C(=O)Nc2ccc(Cl)cc2OC(F)F)CCN(CC(COCC(F)(F)F)C(=O)O)CC1 (stereo not shown) [Compound 232, 2-[[4-[[4-chloro-2-(difluoromethoxy)phenyl]carbamoyl]-4-(5-isopropylpyrazol-1-yl)-1-piperidyl]methyl]-3-(2.2,2-trifluoroethoxy)propanoic acid]
15 | 64.1 | CC(C)c1ccnn1C1(C(=O)Nc2ccc(Cl)cc2OC(F)F)CCN(C[C@H](C(=O)O)c2cnn(C)c2)CC1 (single isomer, unassigned) [Compound 154]
16 | 40.9 | COC1CCC(C(CN2CCC(C(=O)Nc3ccc(Cl)cc3OC(F)F)(n3nccc3C(C)C)CC2)C(=O)O)CC1 (stereo not shown) [Compound 145, 3-[4-[[4-chloro-2-(difluoromethoxy)phenyl]carbamoyl]-4-(5-isopropylpyrazol-1-yl)-1-piperidyl]-2-(4-methoxycyclohexyl) propanoic acid]
17 | 75.9 | CO[C@H]1CC[C@H]([C@@H](CN2CCC(C(=O)Nc3ccc(Cl)cc3OC(F)F)(n3nccc3C(C)C)CC2)C(=O)O)CC1 [Compound 187, (2S)-3-[4-[[4-chloro-2-(difluoromethoxy)phenyl]carbamoyl]-4-(5-isopropylpyrazol-1-yl)-1-piperidyl]-2-((1r,4S)-4-methoxycyclohexyl) propanoic acid]
18 | 158 | COCCC(=O)N1CC(CN2CCC(C(=O)Nc3ccc(Cl)cc3OC(F)F)(n3nccc3C(C)C)CC2)(C(=O)O)C1 [Compound 102, 3-[[4-[[4-chloro-2-(difluoromethoxy)phenyl]carbamoyl]-4-(5-isopropylpyrazol-1-yl)-1-piperidyl]methyl]-1-(3-methoxypropanoyl) azetidine-3-carboxylic acid]
19 | 33.3 | CC(C)c1ccnn1C1(C(=O)Nc2ccc(Cl)cc2OC(F)F)CCN(CC2(C(=O)O)CCC(O)CC2)CC1 (stereo not shown) [Compound 34, 1-[[4-[[4-chloro-2-(difluoromethoxy)phenyl]carbamoyl]-4-(5-isopropylpyrazol-1-yl)-1-piperidyl]methyl]-4-hydroxy-cyclohexanecarboxylic acid]
20 | 10.1 | COc1cccc(C(CN2CCC(C(=O)Nc3ccc(Cl)cc3OC(F)F)(n3nccc3C(C)C)CC2)C(=O)O)c1 (stereo not shown) [Compound 22, 3-[4-[[4-chloro-2-(difluoromethoxy)phenyl]carbamoyl]-4-(5-isopropylpyrazol-1-yl)-1-piperidyl]-2-(3-methoxyphenyl)propanoic acid]
21 | 10.8 | CC(C)c1ccnn1C1(C(=O)Nc2ccc(Cl)cc2OC(F)F)CCN(CC2(C(=O)O)CC=CC2)CC1 [Compound 74, 1-[[4-[[4-chloro-2-(difluoromethoxy)phenyl]carbamoyl]-4-(5-isopropylpyrazol-1-yl)-1-piperidyl]methyl]cyclopent-3-ene-1-carboxylic acid]
22 | 56.6 | CC(C)c1ccnn1C1(C(=O)Nc2ccc(Cl)cc2OC(F)F)CCN(CC2(CC(=O)O)CCOCC2)CC1 [Compound 51, 2-[4-[[4-[[4-chloro-2-(difluoromethoxy)phenyl]carbamoyl]-4-(5-isopropylpyrazol-1-yl)-1-piperidyl]methyl]tetrahydropyran-4-yl]acetic acid]
23 | 38.5 | CC(C)c1ccnn1C1(C(=O)Nc2ccc(Cl)cc2OC(F)F)CCN(C[C@H](CC#N)C(=O)O)CC1 (single isomer, unassigned) [Compound 163]
24 | 24.5 | CC(C)c1ccnn1C1(C(=O)Nc2ccc(Cl)cc2OC(F)F)CCN(C[C@@H](C(=O)O)c2cccnc2)CC1 [Compound 26, (2S)-3-[4-[[4-chloro-2-(difluoromethoxy)phenyl]carbamoyl]-4-(5-isopropylpyrazol-1-yl)-1-piperidyl]-2-(3-pyridyl)propanoic acid]
25 | 26.9 | COCC(CN1CCC(C(=O)Nc2ccc(Cl)cc2OC(F)F)(n2nccc2C(C)C)CC1)C(=O)O (stereo not shown) [Compound 105, 2-[[4-[[4-chloro-2-(difluoromethoxy)phenyl]carbamoyl]-4-(5-isopropylpyrazol-1-yl)-1-piperidyl]methyl]-3-methoxy-propanoic acid]

Reference: patent publication US20260102383A1, “LPAR1 Inhibitors” (AbbVie Inc., priority 2024, published 2026)
